# Source: patent publication US20080188528A1, “Modulators of C3a receptor and methods of use thereof” (priority 2006, published 2008)
# Where a name gives a salt, the structure may show the parent alone.
# Target: T1, human C3a receptor (C3aR) (Homo sapiens, UniProt Q16581)
# T1 construct: expressed in transfected cells
# T1 sequence (Q16581 1-482): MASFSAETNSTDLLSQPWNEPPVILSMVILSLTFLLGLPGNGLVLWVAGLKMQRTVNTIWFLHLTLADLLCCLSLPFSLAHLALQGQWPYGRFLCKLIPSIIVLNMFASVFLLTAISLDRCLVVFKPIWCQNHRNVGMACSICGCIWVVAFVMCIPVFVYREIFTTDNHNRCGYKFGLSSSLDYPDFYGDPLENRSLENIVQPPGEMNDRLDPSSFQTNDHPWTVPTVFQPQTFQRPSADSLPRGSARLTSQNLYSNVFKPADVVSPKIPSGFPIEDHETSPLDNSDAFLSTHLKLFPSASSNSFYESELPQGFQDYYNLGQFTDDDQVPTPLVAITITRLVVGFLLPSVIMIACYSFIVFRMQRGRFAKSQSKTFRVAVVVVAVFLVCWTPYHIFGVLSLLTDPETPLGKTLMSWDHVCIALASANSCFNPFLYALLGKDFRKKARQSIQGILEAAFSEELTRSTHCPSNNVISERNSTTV
# Assay: Inhibition of human [125I]-C3a binding to human C3a receptor (SPA, membranes of HEK293 cells expressing recombinant C3aR)
# Conditions: 0.1 nM [125I]-C3a, 3 hours at room temperature; Table 4
# Summary of the method: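 HEK293 C3aR membranes were pre-coupled to WGA SPA beads and incubated 3 h at room temperature with 0.1 nM [125I]-C3a in HEPES pH 7.4 buffer containing 0.25% BSA and 0.2% CHAPS, DMSO ≤1%. Nonspecific binding was defined with 1 μM unlabeled C3a. IC50 came from nonlinear least-squares fitting.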
row,IC50,SMILES
1,500 to 20000 nM,"CCOC(=O)N=C(N)NCCC[C@H](NC(=O)c1cccn(C(c2ccccc2)c2ccccc2)c1=O)C(=O)O [Compound 83, (2S)-2-({[1-(diphenylmethyl)-2-oxo-1,2-dihydropyridin-3-yl]carbonyl}amino)-5-[(ethoxycarbonyl)carbamimidamido]pentanoic acid]"

# Same assay, conditions: 0.1 nM [125I]-C3a, 3 hours at room temperature; Table 5
row,IC50,SMILES
1,500 to 20000 nM,"Cc1cc(Cc2ccccc2)c(=O)n(CC(=O)N[C@@H](CCCNC(=N)N)C(=O)O)c1 [Compound 84, (2S)-2-{[(3-benzyl-5-methyl-2-oxopyridin-1(2H)-yl)acetyl]amino}-5-carbamimidamidopentanoic acid•TFA]"
2,50 to 500 nM,"O=C(N[C@@H](Cc1c[nH]cn1)C(=O)O)c1cccn(C(c2ccccc2)c2ccccc2)c1=O [Compound 85, (2S)-2-({[1-(diphenylmethyl)-2-oxo-1,2-dihydropyridin-3-yl]carbonyl}amino)-3-(1H-imidazol-4-yl)propanoic acid•TFA]"

# Same assay, conditions: 0.1 nM [125I]-C3a, 3 hours at room temperature; Table 6
row,IC50,SMILES
1,< 50 nM,"CC(=N)NCCC[C@H](NC(=O)c1cccn(C(c2ccccc2)c2ccccc2)c1=O)C(=O)O [Compound 86, (2S)-2-({[1-(diphenylmethyl)-2-oxo-1,2-dihydropyridin-3-yl]carbonyl}amino)-5-(ethanimidoylamino)pentanoic acid•TFA]"
2,< 50 nM,"N=C(N)NCCCC[C@H](NC(=O)c1cccn(C(c2ccccc2)c2ccccc2)c1=O)C(=O)O [Compound 87, (2S)-6-Carbamimidamido-2-({[1-(diphenylmethyl)-2-oxo-1,2-dihydropyridin-3-yl]carbonyl}amino)hexanoic acid]"
3,50 to 500 nM,"CC(=N)NCCCC[C@H](NC(=O)c1cccn(C(c2ccccc2)c2ccccc2)c1=O)C(=O)O [Compound 88, (2S)-2-({[1-(diphenylmethyl)-2-oxo-1,2-dihydropyridin-3-yl]carbonyl}amino)-6-(ethanimidoylamino)hexanoic acid•TFA]"
4,< 50 nM,"N=C(N)NCCC[C@@H](CC(=O)O)NC(=O)c1cccn(C(c2ccccc2)c2ccccc2)c1=O [Compound 89, (3S)-6-Carbamimidamido-3-({[1-(diphenylmethyl)-2-oxo-1,2-dihydropyridin-3-yl]carbonyl}amino)hexanoic acid]"
5,< 50 nM,"CC(C)(C)Cn1cccc(C(=O)N[C@@H](CCCNC(=N)N)C(=O)O)c1=O [Compound 90, (2S)-5-carbamimidamido-2-({[1-(2,2-dimethylpropyl)-2-oxo-1,2-dihydropyridin-3-yl]carbonyl}amino)pentanoic acid•TFA]"
6,50 to 500 nM,"CC(=O)NCCC[C@H](NC(=O)c1cccn(C(c2ccccc2)c2ccccc2)c1=O)C(=O)O [Compound 91, (2S)-5-(Acetylamino)-2-({[1-(diphenylmethyl)-2-oxo-1,2-dihydropyridin-3-yl]carbonyl}amino)pentanoic acid]"
7,< 50 nM,"N/C(=N\O)NCCC[C@H](NC(=O)c1cccn(C(c2ccccc2)c2ccccc2)c1=O)C(=O)O [Compound 92, (2S)-2-({[1-(Diphenylmethyl)-2-oxo-1,2-dihydropyridin-3-yl]carbonyl}amino)-5-(hydroxycarb-amimidamido)pentanoicacid]"
8,50 to 500 nM,"CC(C)/N=C(\NCCC[C@H](NC(=O)c1cccn(C(c2ccccc2)c2ccccc2)c1=O)C(=O)O)NC(C)C [Compound 93, (2S)-5-({Bis[(1-methylethyl)amino]methylidene}amino)-2-({[1-(diphenylmethyl)-2-oxo-1,2-dihydropyridin-3-yl]carbonyl}amino)pentanoic acid]"
9,50 to 500 nM,"CC(=N)NCC[C@H](NC(=O)c1cccn(C(c2ccccc2)c2ccccc2)c1=O)C(=O)O [Compound 94, (2S)-2-({[1-(diphenylmethyl)-2-oxo-1,2-dihydropyridin-3-yl]carbonyl}amino)-4-(ethanimidoylamino)butanoic acid•TFA]"
10,< 50 nM,"CCN(CC)CCC[C@H](NC(=O)c1cccn(C(c2ccccc2)c2ccccc2)c1=O)C(=O)O [Compound 95, (2S)-5-(Diethylamino)-2-({[1-(diphenylmethyl)-2-oxo-1,2-dihydropyridin-3-yl]carbonyl}amino)pentanoic acid]"
11,< 50 nM,"N=C(CC(=O)O)NCCC[C@H](NC(=O)c1cccn(C(c2ccccc2)c2ccccc2)c1=O)C(=O)O [Compound 96, (2S)-5-[(2-carboxyethanimidoyl)amino]-2-({[1-(diphenylmethyl)-2-oxo-1,2-dihydropyridin-3-yl]carbonyl}amino)pentanoic acid•TFA]"
12,< 50 nM,"N=C(N)NCCC[C@H](NC(=O)c1ccc(C(c2ccccc2)c2ccccc2)s1)C(=O)O [Compound 97, (2S)-5-Carbamimidamido-2-({[5-(diphenylmethyl)thiophen-2-yl]carbonyl}amino)pentanoic acid]"
13,< 50 nM,"N=C(N)NCCC[C@H](NC(=O)c1ccc(C(O)(c2ccccc2)c2ccccc2)s1)C(=O)O [Compound 98, (2S)-5-Carbamimidamido-2-[({5-[hydroxy(diphenyl)methyl]thiophen-2-yl}carbonyl)amino]pentanoic acid]"
14,< 50 nM,"N=C(N)NC(=O)CC[C@H](NC(=O)c1ccc(C(c2ccccc2)c2ccccc2)s1)C(=O)O [Compound 99, (2S)-5-Carbamimidamido-2-({[5-(diphenylmethyl)thiophen-2-yl]carbonyl}amino)-5-oxopentanoicacid]"
15,500 to 20000 nM,"CC(=N)NCCC[C@H](NC(=O)c1cccn(Cc2ccccc2)c1=O)C(=O)O [Compound 100, (2S)-2-{[(1-benzyl-2-oxo-1,2-dihydropyridin-3-yl)carbonyl]amino}-5-(ethanimidoylamino)pentanoic acid•TFA]"
16,50 to 500 nM,"CC(=N)NCCC[C@H](NC(=O)c1cccn(Cc2cccc(Cl)c2)c1=O)C(=O)O [Compound 101, (2S)-2-({[1-(3-chlorobenzyl)-2-oxo-1,2-dihydropyridin-3-yl]carbonyl}amino)-5-(ethanimidoylamino)pentanoic acid•TFA]"
17,50 to 500 nM,"CC(=N)NCCC[C@H](NC(=O)c1ccc(C(c2ccccc2)c2ccccc2)o1)C(=O)O [Compound 102, (2S)-2-({[5-(Diphenylmethyl)furan-2-yl]carbonyl}amino)-5-(ethanimidoylamino)pentanoic acid]"
18,50 to 500 nM,"CC(=N)NCCC[C@H](NC(=O)c1ccc(C(c2ccccc2)c2ccccc2)s1)C(=O)O [Compound 103, (2S)-2-({[5-(diphenylmethyl)thiophen-2-yl]carbonyl}amino)-5-(ethanimidoylamino)pentanoic acid•TFA]"
19,500 to 20000 nM,"CC(=N)NCCC[C@H](NC(=O)c1cccn(Cc2ccccc2Cl)c1=O)C(=O)O [Compound 104, (2S)-2-({[1-(2-chlorobenzyl)-2-oxo-1,2-dihydropyridin-3-yl]carbonyl}amino)-5-(ethanimidoylamino)pentanoic acid•TFA]"
20,50 to 500 nM,"O=C(N[C@@H](Cc1c[nH]c2ccccc12)C(=O)O)c1cccn(C(c2ccccc2)c2ccccc2)c1=O [Compound 105, (2S)-2-({[1-(Diphenylmethyl)-2-oxo-1,2-dihydropyridin-3-yl]carbonyl}amino)-3-(1H-indol-3-yl)propanoicacid]"
21,50 to 500 nM,"CC(=N)NCCC[C@H](NC(=O)c1cccn(Cc2cccc(C(F)(F)F)c2)c1=O)C(=O)O [Compound 106, (2S)-5-(ethanimidoylamino)-2-[({2-oxo-1-[3-(trifluoromethyl)benzyl]-1,2-dihydropyridin-3-yl}carbonyl)amino]pentanoic acid•TFA]"
22,500 to 20000 nM,"CC(=N)NCCC[C@H](NC(=O)c1cccn(Cc2ccccc2C(F)(F)F)c1=O)C(=O)O [Compound 107, (2S)-5-(ethanimidoylamino)-2-[({2-oxo-1-[2-(trifluoromethyl)benzyl]-1,2-dihydropyridin-3-yl}carbonyl)amino]pentanoic acid•TFA]"
23,500 to 20000 nM,"CC(=N)NCCC[C@H](NC(=O)c1ccc(C(c2ccccc2)c2ccccc2)cc1)C(=O)O [Compound 108, (2S)-2-({[4-(Diphenylmethyl)phenyl]carbonyl}amino)-5-(ethanimidoylamino)pentanoic acid]"
24,50 to 500 nM,"CC(=N)NCCC[C@H](NC(=O)c1cccn(Cc2cccc(Br)c2)c1=O)C(=O)O [Compound 109, (2S)-2-({[1-(3-bromobenzyl)-2-oxo-1,2-dihydropyridin-3-yl]carbonyl}amino)-5-(ethanimidoylamino)pentanoic acid•TFA]"
25,50 to 500 nM,"CC(=N)NCCC[C@H](NC(=O)c1cccn(Cc2ccc(Br)cc2)c1=O)C(=O)O [Compound 110, (2S)-2-({[1-(4-bromobenzyl)-2-oxo-1,2-dihydropyridin-3-yl]carbonyl}amino)-5-(ethanimidoylamino)pentanoic acid•TFA]"
26,< 50 nM,"N=C(N)NC(=O)CC[C@H](NC(=O)c1ccc(C(c2ccccc2)c2ccccc2)cc1)C(=O)O [Compound 111, (2S)-5-Carbamimidamido-2-({[4-(diphenylmethyl)phenyl]carbonyl}amino)-5-oxopentanoic acid]"
27,50 to 500 nM,"CC(=N)NCCC[C@H](NC(=O)c1cccc(C(c2ccccc2)c2ccccc2)c1)C(=O)O [Compound 112, (2S)-2-({[3-(Diphenylmethyl)phenyl]carbonyl}amino)-5-(ethanimidoylamino)pentanoic acid]"
